We go through 6 compounds from US20230391765A1, “HETEROBIFUNCTIONAL COMPOUNDS AS DEGRADERS OF ENL” (ICAHN SCHOOL OF MEDICINE AT MOUNT SINAI, priority 2020, published 2023).

What all share (assay type): cell-based
Assay [1] has as its target T1, ENL (Homo sapiens, UniProt Q03111).
T1 construct: Cells were lysed and expression of endogenous ENL was assessed by Western blot analysis; host or cells: MV4;11
T1 sequence (Q03111 1-559): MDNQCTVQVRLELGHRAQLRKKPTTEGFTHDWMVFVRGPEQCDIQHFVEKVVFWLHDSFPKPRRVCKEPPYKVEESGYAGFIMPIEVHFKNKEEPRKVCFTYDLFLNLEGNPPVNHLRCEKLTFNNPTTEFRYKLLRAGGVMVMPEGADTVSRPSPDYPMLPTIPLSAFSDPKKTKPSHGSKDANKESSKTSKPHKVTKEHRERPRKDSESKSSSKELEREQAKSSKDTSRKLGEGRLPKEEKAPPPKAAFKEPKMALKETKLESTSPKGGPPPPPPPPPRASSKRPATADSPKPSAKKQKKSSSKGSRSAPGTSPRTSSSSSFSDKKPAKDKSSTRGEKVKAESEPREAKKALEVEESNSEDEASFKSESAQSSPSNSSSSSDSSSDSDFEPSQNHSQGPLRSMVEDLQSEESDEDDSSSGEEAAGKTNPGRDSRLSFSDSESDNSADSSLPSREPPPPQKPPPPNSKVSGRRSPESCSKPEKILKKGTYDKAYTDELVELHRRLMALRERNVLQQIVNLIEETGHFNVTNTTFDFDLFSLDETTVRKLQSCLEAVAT
Description: Western blot of ENL protein levels in MV4; 11 cells. The method, then:
MV4; 11 cells were treated with DMSO or the indicated compounds (the same panel of ENL degraders as shown in FIG. 4) at 1 μM and 10 μM for 24 h. Cells were lysed and expression of ENL was assessed by Western blot analysis.
DMSO treated cells were used as control.
MV4; 11 cells were treated with LQ076-122, or LQ081-107 at 0.3, 1, 3, 10, and 30 μM for 24 h. DMSO treated cells were used as control. Cells were lysed and expression of ENL and GAS41 was assessed by Western analysis.
MV4; 11 cells were treated with DMSO or the indicated compounds at 1 μM and 10 μM for 6 h. Cells were lysed and expression of endogenous ENL was assessed by Western blot analysis.
Cells were treated with 1 μM of ENL degrader with or without 1 μM proteasome inhibitor MG132 for 6 h.
(§1) ENL degraders were dissolved in DMSO. DMSO with no degraders was used as the control. 1×10^6 leukemia cells were seeded in 5 mL medium. For prescreening of compounds, each test compound was added to the medium at 1 μM and 10 μM. Cells were collected after 24 h treatment. For the concentration-dependent treatment, candidate compounds were added to the medium at a series of concentration as indicated in figures. Cells were collected after 24 h treatment. For the time-course treatment, candidate compounds were added to the medium at a final concentration of 4 μM (MV4; 11 cells) or 8 μM (MOLM13 cells). Cells were collected at the indicated timepoints (in hours: 12, 16, 20, 24 and 36 h).
(§2) After ENL degrader treatment, cells were collected, lysed, and total cell lysates were used for Western blot. The following primary antibodies were used: ENL (Cell Signaling Technology), GAS41 (Santa Cruz), GAPDH (Santa Cruz), β-actin (Sigma). Blots were detected using HRP-conjugated secondary antibodies.
A general note: Immunoblotting shows a protein as a band on a membrane.

Assay [2] deals with ENL target genes. Description: RT-qPCR of ENL target genes in MOLM13 cells. The settings on record: MOLM13 cells, 8 μM for 24 h. The protocol:
MOLM13 cells were treated with LQ076-122 (FIG. 14A) and LQ081-108 (FIG. 14B) at 0.5, 1, 2, 4, and 8 μM for 24 h. […] RT-qPCR analysis was performed to detect the mRNA levels of selected ENL target genes.
Total RNA was extracted using the RNeasy Plus kit (Qiagen) and reverse-transcribed using the iScript cDNA Synthesis kit (Bio-Rad). RT-qPCR was performed using the Power SYBR Green PCR Master Mix (Applied Biosystems) on the CFX96 Real-Time PCR system (Bio-Rad). Gene expressions were calculated following normalization to 18s rRNA amounts using the comparative cycle threshold (Ct) method.
(In general: Real-time PCR tracks product formation cycle by cycle.)

Assay [3] concerns ENL-dependent MV4; 11 cells. The assay can be described thus: Cell viability (CellTiter-Glo), MV4; 11 cells. The method, then: (§3) MV4; 11 (FIG. 13A), MOLM13 (FIG. 13B) and Jurkat (FIG. 13C) cells were seeded at 2×10^5 cells/mL density and treated with DMSO or indicated compounds 0.5, 1, 2 and 4 μM for 72 h. Cell viability was measured using CellTiter-Glo reagent (Promega) and relative cell viability was calculated by normalization to DMSO samples.
ENL-dependent MV4; 11 cells were seeded at 2×10^5 cells/mL density and treated with DMSO or the indicated compounds at 0, 1.25, 2.5, 5 and 10 μM for 72 h. Cell viability was measured using CellTiter-Glo reagent (Promega) and relative cell viability was calculated by normalization to DMSO samples.
(§4) ENL-dependent MV4; 11 and ENL-independent Jurkat cells were seeded at 2×10^5 cells/mL density and treated with DMSO or indicated compounds at 10 nM, 100 nM, 1 μM and 10 μM for 3 days (A) or 6 days (B). Cell viability was measured using CellTiter-Glo reagent (Promega) and relative cell viability was calculated by normalization to DMSO samples.
(§5) MV4; 11 or MOLM13 cells were seeded at 0.2×10^6 cells/mL density. Cells were treated with DMSO or ENL degraders at indicated concentrations. Each treatment was done in triplicates. After 72 h treatment, 100 μL of cell suspension from each treatment was mixed with 25 μL of CellTiter-Glo reagent (Promega) and incubated for 10 min before the luminescence signals were detected on a plate reader.

The subject of assay [4] is ENL-dependent MOLM13 leukemia cells. The assay can be described thus: Cell viability (CellTiter-Glo), MOLM13 cells. The settings on record: MOLM13 cells, 0.5, 1, 2 and 4 μM for 72 h. The method, then:
as §3, §5

The test system of assay [5] is ENL-independent Jurkat cells. Description: Cell viability (CellTiter-Glo), Jurkat cells. The method, then:
as §3, §4

In assay [6] the target is T1, ENL. The assay can be described thus: Western blot of ENL protein levels in MOLM13 cells. The protocol:
MOLM13 cells were treated with LQ076-122 or LQ081-108 at 0, 0.25, 0.5, 1, 1.5, 2, 2.5, 3, 4 and 8 μM for 24 h.
MOLM13 cells were treated with DMSO or 8 μM of LQ076-122 for 12, 16, 20, 24 and 36 h.
MV4; 11, MOLM13 and Jurkat cells were treated with LQ108-69, LQ108-71, LQ108-72, LQ126-62 and LQ126-63 at 0, 1 nM, 10 nM, 100 nM, 1 μM, and 10 μM doses for 6 h. DMSO was used as negative control.
as §1, §2

Assay [7] addresses T1, ENL. The assay can be described thus: Western blot of ENL protein levels in Jurkat cells.
Excerpt: […] DMSO was used as negative control.
as §2

The mark [8] stands for this setting: 11 cells, 0.5, 1, 2 and 4 μM for 72 h.
The mark [9] stands for this setting: Jurkat cells, 0.5, 1, 2 and 4 μM for 72 h.

As to `Cc1ncsc1-c1ccc(CNC(=O)[C@H]2C[C@H](O)CN2C(=O)[C@@H](NC(=O)CCCCCCCCCCNC(=O)c2ccc(C(=O)Nc3ccc4[nH]c(CN5CCC[C@@H]5C)nc4c3)cc2)C(C)(C)C)cc1` [LQ081-107], in assay [1] (11 cells, 0.3, 1, 3 and 10 μM for 12 and 24 h), the “reduction of ENL protein levels” value is listed as “did not affect ENL protein levels”. The “ENL target gene expression (mRNA levels)” value in assay [2] is listed as “did not dramatically affect these genes”.

As to `Cc1ncsc1-c1ccc([C@H](C)NC(=O)[C@@H]2C[C@@H](O)CN2C(=O)[C@@H](NC(=O)CCCCCCCCCCCNC(=O)c2ccc(C(=O)Nc3ccc4[nH]c(CN5CCC[C@@H]5C)nc4c3)cc2)C(C)(C)C)cc1` [LQ081-109, N^1-(12-(((S)-1-((2S,4R)-4-hydroxy-2-(((S)-1-(4-(4-methylthiazol-5-yl)phenyl)ethyl)carbamoyl)pyrrolidin-1-yl)-3,3-dimethyl-1-oxobutan-2-yl)amino)-12-oxododecyl)-N^4-(2-(((S)-2-methylpyrrolidin-1-yl)methyl)-1H-benzo[d]imidazol-5-yl)terephthalamide], the “reduction of ENL protein levels” value in assay [1] (11 cells, 0-8 μM for 24 h) is “reduced ENL protein levels in a concentration-dependent manner”; in assay [1] (11 cells, 10 μM, 24 h), “effective in reducing ENL protein levels”. Further, the “suppression of cell growth (relative cell viability)” value in assay [3] (setting [8]) and in assay [4] was “selectively suppressed cell growth” each time.

`Cc1ncsc1-c1ccc([C@H](C)NC(=O)[C@H]2C[C@H](O)CN2C(=O)[C@@H](NC(=O)CCCCCCCCCCCNC(=O)c2ccc(C(=O)Nc3ccc4[nH]c(CN5CCC[C@@H]5C)nc4c3)cc2)C(C)(C)C)cc1` [LQ081-158]: the “suppression of cell growth (relative cell viability)” value in assay [3] (setting [8]), in assay [4] and in assay [5] (setting [9]) was “did not significantly affect cell growth” in each case.

For `Cc1ncsc1-c1ccc([C@H](C)NC(=O)[C@@H]2C[C@@H](OCc3ccccc3)CN2C(=O)[C@@H](NC(=O)CCCCCCCCCCNC(=O)c2ccc(C(=O)Nc3ccc4[nH]c(CN5CCC[C@@H]5C)nc4c3)cc2)C(C)(C)C)cc1` [LQ108-141], the “suppression of cell growth (relative cell viability)” value in assay [3] (setting [8]), in assay [4] and in assay [5] (setting [9]) was “did not significantly affect cell growth” each time.

On to `Cc1ncsc1-c1ccc([C@H](C)NC(=O)C2C[C@@H](OCc3ccccc3)CN2C(=O)[C@@H](NC(=O)CCCCCCCCCCCNC(=O)c2ccc(C(=O)Nc3ccc4[nH]c(CN5CCC[C@@H]5C)nc4c3)cc2)C(C)(C)C)cc1` (stereo partly shown) [LQ108-142], for which the “suppression of cell growth (relative cell viability)” value in assay [3] (setting [8]), in assay [4] and in assay [5] (setting [9]) was “did not significantly affect cell growth” in each case.

Regarding `Cc1ncsc1-c1ccc(CNC(=O)[C@@H]2C[C@@H](O)CN2C(=O)[C@@H](NC(=O)CCCCCCCCCCNC(=O)c2ccc3c(c2)[C@H](NC(=O)c2cc(-c4ccc(C(=O)N(C)C)c(O)c4)on2)CC3)C(C)(C)C)cc1` [LQ126-63, 5-(4-(dimethylcarbamoyl)-3-hydroxyphenyl)-N—((R)-6-((11-(((S)-1-((2S,4R)-4-hydroxy-2-((4-(4-methylthiazol-5-yl)benzyl)carbamoyl)pyrrolidin-1-yl)-3,3-dimethyl-1-oxobutan-2-yl)amino)-11-oxoundecyl)carbamoyl)-2,3-dihydro-1H-inden-1-yl)isoxazole-3-carboxamide], the “reduction of ENL protein levels” value is on record as “reduced ENL protein levels in a concentration-dependent manner” in assay [1] (11 cells, 1 nM to 10 μM for 6 h); “reduced ENL protein levels in a concentration-dependent manner” in assay [6] (1 nM to 10 μM for 6 h); “reduced ENL protein levels in a concentration-dependent manner” in assay [7] (1 nM to 10 μM for 6 h). In addition, in assay [1] (11 cells, 1 μM degrader with or without 1 μM MG132 for 6 h), the “effect of proteasome inhibitor MG132 on the ENL degradation induced by the degrader” value was “partially blocks the ENL degradation”. The “ENL protein level after long treatment” value in assay [1] (11 cells, 1 μM for 48 and 72 h) is recorded as “maintained the ENL protein at low levels”; in assay [6] (1 μM for 48 and 72 h), “maintained the ENL protein at low levels”; in assay [7] (1 μM for 48 and 72 h), “maintained the ENL protein at low levels”. The “suppression of cell growth (relative cell viability)” value in assay [3] (11 cells, 100 nM dose, 3 days and 6 days) is “strongly suppressed MV4; 11 cell growth”; in assay [3] (11 cells, 1.25, 2.5, 5 and 10 μM for 72 h), “significantly suppressed MV4; 11 cell growth at low micromolar concentration”; in assay [5] (Jurkat cells, 10 nM to 10 μM, 3 days and 6 days), “did not affect the growth of ENL-independent Jurkat cells”.
